From patent US4666936A, “Amide derivatives of 2-(p-aminobenzyl)-butyric acid and esters thereof having hypolipidemizing activity” (Medosan Industrie Biochimiche Riunite S.p.A., priority 1984, dated 1987)
“Also recorded” adds a separate entry of the source.

Tests used:
[1] = tested on: cholesterol and triglycerides; details: literature, prior art; cited from earlier work
[2] = tested on: hematic levels of triglycerides and total cholesterol; assay: Hypolipidemizing activity in rat made hyperlipidemic by Triton WR-1339; format: in vivo, rat (male Wistar); details: 500 mg/kg per os; for Total cholesterol, % mg / Triglycerides, % mg: serum after 18 hours fasting; for Total cholesterol, % variation / Triglycerides, % variation: vs carrier
Procedure: (§1) The preparations administered "in vivo" by oral route, comprise a 0.5% suspension of carboxymethylcellulose in a neutral pH normal physiological saline for the compounds (3), (4) and (5), while for the compounds (2) and (6) the preparation comprises a solution in NaOH (0.1N) at pH 7-7.5. The hypolipidemizing activity of the substances under test was evaluated as the ability to decrease the hematic levels of triglycerides and total cholesterol in animals made hyperlipidemic by administration of Triton (antihyperlipidemic agents, J. N. Moss, Screening Methods in Pharmacology,Ed. Robert A. Turner and P. Hebborn, volume II, Academic Press, pages 121-143). The test was carried out on two animal species: rat and mouse. Male Wistar rats and Swiss mice were used, held at a normal diet, the former weighing 200-260 g, the latter weighing about 26-30 g. The compounds (2), (3), (4), (5) and (6) and the Bezafibrate and Clofibrate of control were administered per os at a dose of 500 mg/kg, simultaneously with a 10% solution in normal saline of Triton WR-1339 endoperitoneally at a rate of 2 ml/kg body weight. After treatment, the animals were divided into lots of eight, and held fasting for 18 hours and then sacrificed. The hematic levels of triglycerides total cholesterol are measured on the serum by enzymatic methods (Test-Combination Triglycerides, Boehring Mannheim GmbH) and colorimetric methods (Test-Combination Cholesterol, Boehring Mannheim GmbH). The results on the hypolipidemizing activity of the compounds under test in rat and mouse are referred in tables I and II.

[3] = tested on: hematic levels of triglycerides and total cholesterol; assay: Hypolipidemizing activity in mouse made hyperlipidemic by Triton WR-1339; format: in vivo, mouse (Swiss); details: 500 mg/kg per os; for Total cholesterol, % mg / Triglycerides, % mg: serum after 18 hours fasting; for Total cholesterol, % variation / Triglycerides, % variation: vs carrier
Procedure: as §1

[4] = mouse, os; value as reported in literature: G. Metz et al, Arzneimittel Forschung, 27: 1173; 1977; cited from earlier work
[5] = Acute toxicity (DL50) in mouse, oral route; details: in vivo, oral (os), 15 days observation
Procedure: DL50 was evaluated after administration of the compounds (2), (3), (4), (5) and (6) alone in male albine Swiss mice weighing 27±3 g, using the oral route. The animals were held under observation by checking the mortality and pain signs, if any, for 15 days.
The DL50 values (mg/kg) are referred in table III.

[6] = tested on: hematic levels of cholesterol and triglycerides; assay: Pharmacological tests of hypolipidemizing activity, overall statements; format: in vivo, rat and mouse; details: compared with Bezafibrate and Clofibrate
Procedure: as §1

cholesterol = details: literature, appears to occur possibly; cited from earlier work
[7] = tested on: hepatic enzymes involved in the biosynthesis de novo of the triglycerides; details: literature, appears to occur possibly; cited from earlier work

Row | Structure (SMILES) | hypolipidemizing activity (in words) [1] | Total cholesterol, % mg [2] [% mg] | Triglycerides, % mg [2] [% mg] | Total cholesterol, % variation [2] [%] | Triglycerides, % variation [2] [%] | Total cholesterol, % mg [3] [% mg] | Triglycerides, % mg [3] [% mg] | Total cholesterol, % variation [3] [%] | Triglycerides, % variation [3] [%] | DL50 [4] [mg/kg] | LD50 [5] [mg/kg] | hypocholesterolemizing and hypolipidemizing activity (in words) [6] | cholesterol absorption at the intestinal level (cholesterol) | excretion of cholesterol with the bile (cholesterol) | inhibiting activity in vivo on hepatic enzymes [7]
1 | Cc1ccc(C)n1-c1ccc(CC(=O)Nc2nccs2)cc1 | hypolipidemizing activity lower than that of Bezafibrate |  |  |  |  |  |  |  |  |  |  |  |  |  | 
2 | CC(C)(Oc1ccc(CCNC(=O)c2ccc(Cl)cc2)cc1)C(=O)O [Bezafibrate, reference compound] | ability to decrease the hematic levels of cholesterol and triglycerides | 210 | 415 | -22 | -20 | 139 | 100 | -33 | -32 |  |  |  |  |  | 
3 | CCOC(=O)C(C)(C)Oc1ccc(Cl)cc1 [Clofibrate, reference compound] | ability to decrease the hematic levels of cholesterol and triglycerides | 218 | 420 | -19 | -19 | 152 | 115 | -27 | -22 | 1280 |  |  |  |  | 
4 | CCC(Cc1ccc(N2C(=O)c3ccccc3C2=O)cc1)C(=O)O (stereo not shown) [Compound (2), 2-(p-phthalimidobenzyl)-butyric acid] |  | 176 | 360 | -35 | -31 | 130 | 60 | -38 | -59 |  | > 2000 | interesting ability to decrease the hematic levels of cholesterol and triglycerides; also recorded: particularly high hypocholesterolemizing and hypolipidemizing activity |  |  | 
5 | CCOC(=O)C(CC)Cc1ccc(N2C(=O)c3ccccc3C2=O)cc1 (stereo not shown) [Compound (3), 2-(p-phthalimidobenzyl)-butyric acid ethyl ester] |  | 189 | 390 | -30 | -25 | 140 | 64 | -33 | -56 |  | > 1700 | interesting ability to decrease the hematic levels of cholesterol and triglycerides; also recorded: particularly high hypocholesterolemizing and hypolipidemizing activity |  |  | 
6 | CCOC(=O)C(CC)Cc1ccc(NC(=O)c2ccc(Cl)cc2)cc1 (stereo not shown) [Compound (4), 2-[4-(p-chlorobenzamido)-benzyl]-butyric acid ethyl ester] |  | 200 | 400 | -26 | -23 | 129 | 90 | -38 | -39 |  | > 2000 | interesting ability to decrease the hematic levels of cholesterol and triglycerides; also recorded: particularly high hypocholesterolemizing and hypolipidemizing activity |  |  | 
7 | CCOC(=O)C(CC)Cc1ccc(NC(=O)Cc2ccc(-n3cccc3)cc2)cc1 (stereo not shown) [Compound (5), 2-{4-[4-(1-pyrryl)-phenylacetamido]-benzyl}-butyric acid ethyl ester] |  | 205 | 410 | -24 | -21 | 130 | 80 | -38 | -45 |  | > 2000 | interesting ability to decrease the hematic levels of cholesterol and triglycerides; also recorded: particularly high hypocholesterolemizing and hypolipidemizing activity |  |  | 
8 | CCC(Cc1ccc(NC(=O)c2ccccc2C(=O)O)cc1)C(=O)O (stereo not shown) [Compound (6), 2-(p-phthalylaminobenzyl)-butyric acid] |  | 180 | 380 | -32 | -28 | 130 | 64 | -38 | -56 |  | > 2000 | interesting ability to decrease the hematic levels of cholesterol and triglycerides; also recorded: particularly high hypocholesterolemizing and hypolipidemizing activity |  |  | 
9 | CC(C)OC(=O)C(C)(C)Oc1ccc(C(=O)c2ccc(Cl)cc2)cc1 [Procetofene] | hypolipidemizing activity lower than that of Bezafibrate |  |  |  |  |  |  |  |  |  |  |  |  |  | 
10 | CC(=O)c1ccccc1N1C(=O)c2ccccc2C1=O [o-(N-phthalimido)acetophenone] | more active than Clofibrate in reducing the serum cholesterol percentage and the triglyceride level |  |  |  |  |  |  |  |  |  |  |  | decrease the cholesterol absorption at the intestinal level | speed up the excretion of cholesterol with the bile | inhibiting activity in vivo
11 | O=C1NC(=O)c2ccccc21 [phthalimide] | hypocholesterolemizing activity |  |  |  |  |  |  |  |  |  |  |  |  |  | 
